Source: paper PMC3070360 (Journal of natural products, 2011)

Legend:
[1] = system: MDA-MB-231; test: NCI-DTP 60 cell line screen, MDA-MB-231; format: cell-based; details: read-out: GI50 MDA-MB-231, data provided by NCI-DTP, NA=not active
[2] = system: IGROV-1; test: NCI 60 cell line screen, IGROV-1; format: cell-based, human; details: read-out: GI50 IGROV-1, IGROV-1, Ovarian
[3] = system: U25-1; test: NCI 60 cell line screen, U25-1; format: cell-based; details: read-out: GI50 U25-1, U25-1, CNS
[4] = system: NCI-H522; test: NCI 60 cell line screen, NCI-H522; format: cell-based; details: read-out: GI50 NCI-H522, NCI-H522, Lung
[5] = system: DU-145; test: NCI 60 cell line screen, DU-145; format: cell-based; details: read-out: GI50 DU-145, DU-145, Prostate
[6] = system: A498; test: NCI 60 cell line screen, A498; format: cell-based, human; details: read-out: GI50 A498, A498, Renal
[7] = system: LOX-IMVI; test: NCI 60 cell line screen, LOX-IMVI; format: cell-based, human; details: read-out: GI50 LOX-IMVI, Melanoma
[8] = system: HCT-116; test: NCI-DTP 60 cell line screen, HCT-116; format: cell-based; details: read-out: GI50 HCT-116, data provided by NCI-DTP, NA=not active
[9] = system: NCI 60 cell lines; test: NCI 60 cell line screen, single dose and overall cytotoxicity; format: cell-based
[10] = system: HCT-116 cells; test: Clonogenic dose-response analysis; format: cell-based
[11] = system: PC-3; details: read-out: GI50 PC-3; human prostate carcinoma cell line PC-3; cited from earlier work
[12] = system: LnCap; details: read-out: GI50 LnCap; human prostate carcinoma cell line LnCap; cited from earlier work
[13] = system: TSU-Pr1; details: read-out: GI50 TSU-Pr1; human prostate carcinoma cell line TSU-Pr1; cited from earlier work

Substance	GI50 [1] [nM]	GI50 [2] [nM]	GI50 [3] [nM]	GI50 [4] [nM]	GI50 [5] [nM]	GI50 [6] [nM]	GI50 [7] [nM]	GI50 [8] [nM]	Diminished cytotoxicity (summary in the conclusions) [9]	Concentration achieving the desired therapeutic effect (90% kill of tumor cells) ([10]; HCT-116, clonogenic, continuous exposure for seven days) [µM]	Toxicity to HCT-116 cells in the clonogenic assay ([10]; two hour and 24 hour dosing schedules)	GI50 [11] [nM]	GI50 [12] [nM]	GI50 [13] [nM]
(+)-jasplakinolide Z3 [Compound 11]	740	170	50	40	3720	440	160	–	–	–	–	–	–	–
jasplakinolide J [Compound 5]	260	20	50	610	290	210	30	110	≈ 1 uM	–	–	–	–	–
(+)-jasplakinolide Z1 [Compound 9]	2500	1760	600	120	18800	–	280	–	–	–	–	–	–	–
jasplakinolide Q [Compound 7]	70	10	30	160	100	80	20	50	–	–	–	–	–	–
(+)-jasplakinolide V [Compound 13]	90	30	40	60	80	10	7	70	–	–	–	–	–	–
jasplakinolide B [Compound 3, reference compound]	40	–	–	–	–	–	–	–	–	–	–	–	–	–
jasplakinolide [Compound 1]	–	–	–	–	–	–	–	–	–	0.004	Little toxicity	65	41	170
